Data from patent publication US10202389B2, “Pyrazolopyrimidinyl inhibitors of ubiquitin-activating enzyme” (Millennium Pharmaceuticals, Inc., priority 2012, dated 2019).

These molecules were tested against recombinant human UAE (Homo sapiens (Human), UniProt P22314) (assay: Ubiquitin Activating Enzyme (UAE) HTRF Assay). Conditions: read-out: % inhibition @0.111 μM.
recombinant human UAE, sequence (P22314 whole entry): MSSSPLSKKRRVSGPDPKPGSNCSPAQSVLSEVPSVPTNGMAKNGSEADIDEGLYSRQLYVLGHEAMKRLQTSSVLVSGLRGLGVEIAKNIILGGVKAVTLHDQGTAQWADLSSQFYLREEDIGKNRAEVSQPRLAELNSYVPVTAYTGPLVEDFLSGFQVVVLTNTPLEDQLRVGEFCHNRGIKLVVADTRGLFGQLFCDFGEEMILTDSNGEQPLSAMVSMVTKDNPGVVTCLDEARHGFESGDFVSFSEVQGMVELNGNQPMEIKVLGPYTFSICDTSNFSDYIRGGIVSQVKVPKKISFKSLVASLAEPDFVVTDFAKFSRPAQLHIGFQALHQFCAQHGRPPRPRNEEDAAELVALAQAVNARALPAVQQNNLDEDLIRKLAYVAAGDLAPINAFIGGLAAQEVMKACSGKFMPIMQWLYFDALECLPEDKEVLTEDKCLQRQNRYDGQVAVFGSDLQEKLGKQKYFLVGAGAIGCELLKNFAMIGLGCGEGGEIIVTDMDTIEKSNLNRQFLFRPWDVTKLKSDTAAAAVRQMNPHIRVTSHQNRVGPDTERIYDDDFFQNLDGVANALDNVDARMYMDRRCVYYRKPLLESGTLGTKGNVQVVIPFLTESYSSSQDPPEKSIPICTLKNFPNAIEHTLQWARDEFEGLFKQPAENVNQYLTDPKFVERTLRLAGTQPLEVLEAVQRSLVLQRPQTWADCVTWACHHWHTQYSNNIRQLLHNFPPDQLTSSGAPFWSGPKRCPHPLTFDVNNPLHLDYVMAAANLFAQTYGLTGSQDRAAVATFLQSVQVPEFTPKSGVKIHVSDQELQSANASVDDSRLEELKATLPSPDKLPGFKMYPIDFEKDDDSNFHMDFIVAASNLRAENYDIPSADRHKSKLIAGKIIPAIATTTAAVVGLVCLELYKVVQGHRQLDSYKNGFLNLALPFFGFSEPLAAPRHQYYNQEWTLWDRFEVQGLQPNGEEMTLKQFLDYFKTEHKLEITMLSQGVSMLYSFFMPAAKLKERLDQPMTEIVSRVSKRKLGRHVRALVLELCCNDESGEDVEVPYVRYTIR
Experimental: After incubation for 120 minutes, quantification of the FRET is performed on the Pherostar (BMG).
For compounds whose values are marked with an asterisk (*), mouse UAE was used. For all other compounds, human UAE was used.

inhibition at 0.111 µM [%] | SMILES
100 | CC(C)(c1cccc(-c2cc3nccc(N[C@@H]4C[C@H](COS(N)(=O)=O)[C@@H](O)[C@H]4O)n3n2)c1)C(F)(F)F (relative stereo) [Compound I-058, (rac)-((1R,2R,3S,4R)-2,3-dihydroxy-4-(2-(3-(1,1,1-trifluoro-2-methylpropan-2-yl)phenyl)pyrazolo[1,5-a]pyrimidin-7-ylamino)cyclopentyl)methyl rel-sulfamate]
100 | C#Cc1cccc(-c2cc3nccc(N[C@@H]4C[C@H](COS(N)(=O)=O)[C@@H](O)[C@H]4O)n3n2)c1 (relative stereo) [Compound I-083, (rac)-[(1R,2R,3S,4R)-4-{[2-(3-ethynylphenyl)pyrazolo[1,5-a]pyrimidin-7-yl]amino}-2,3-dihydroxycyclopentyl]methyl rel-sulfamate]
100 | NS(=O)(=O)OC[C@H]1C[C@@H](Nc2ccnc3cc(-c4cccc(C5=CCCC5)c4)nn23)[C@H](O)[C@@H]1O (relative stereo) [Compound I-047, (rac)-(1R,2R,3S,4R)-4-(2-(3-cyclopentenylphenyl)pyrazolo[1,5-a]pyrimidin-7-ylamino)-2,3-dihydroxycyclopentyl)methyl rel-sulfamate]
100 | COc1ccccc1-c1cc2nccc(N[C@@H]3C[C@H](COS(N)(=O)=O)[C@@H](O)[C@H]3O)n2n1 (relative stereo) [Compound I-072, (rac)-((1R,2R,3S,4R)-2,3-dihydroxy-4-(2-(2-methoxyphenyl)pyrazolo[1,5-a]pyrimidin-7-ylamino)cyclopentyl)methyl rel-sulfamate]
93 | NS(=O)(=O)OC[C@H]1C[C@@H](Nc2ccnc3cc(-c4cnc5ccccc5c4)nn23)[C@H](O)[C@@H]1O (relative stereo) [Compound I-025, (rac)-((1R,2R,3S,4R)-2,3-dihydroxy-4-(2-(quinolin-3-yl)pyrazolo[1,5-a]pyrimidin-7-ylamino)cyclopentyl)methyl rel-sulfamate]
100 | NS(=O)(=O)OC[C@H]1C[C@@H](Nc2ccnc3cc(-c4cccc(-c5ccccc5)c4)nn23)[C@H](O)[C@@H]1O (relative stereo) [Compound I-003, (rac)((1R,2R,3S,4R)-4-(2-(biphenyl-3-yl)pyrazolo[1,5-a]pyrimidin-7-ylamino)-2,3-dihydroxycyclopentyl)methyl rel-sulfamate]
99 | Cc1ccc2ccccc2c1-c1cc2nccc(N[C@@H]3C[C@H](COS(N)(=O)=O)[C@@H](O)[C@H]3O)n2n1 [Compound I-114, (s.e.)-((1R,2R,3S,4R)-2,3-dihydroxy-4-(2-(2-methylnaphthalen-1-yl)pyrazolo[1,5-a]pyrimidin-7-ylamino)cyclopentyl)methyl sulfamate]
99 | NS(=O)(=O)OC[C@H]1C[C@@H](Nc2ccnc3cc(-c4ccc5ccccc5c4)nn23)[C@H](O)[C@@H]1O (relative stereo) [Compound I-016, (rac)-((1R,2R,3S,4R)-2,3-dihydroxy-4-(2-(naphthalen-2-yl)pyrazolo[1,5-a]pyrimidin-7-ylamino)cyclopentyl)methyl rel-sulfamate]
31 | Cc1cc(N[C@@H]2C[C@H](COS(N)(=O)=O)[C@@H](O)[C@H]2O)n2nc(-c3ccccc3)cc2n1 (relative stereo) [Compound I-004, (rac)-{(1R,2R,3S,4R)-2,3-dihydroxy-4-[(5-methyl-2-phenylpyrazolo[1,5-a]pyrimidin-7-yl)amino]cyclopentyl}methyl rel-sulfamate]
100 | NS(=O)(=O)OC[C@H]1C[C@@H](Nc2ccnc3cc(-c4csc5ccccc45)nn23)[C@H](O)[C@@H]1O (relative stereo) [Compound I-022, (rac)-((1R,2R,3S,4R)-4-(2-(benzo[b]thiophen-3-yl)pyrazolo[1,5-a]pyrimidin-7-ylamino)-2,3-dihydroxycyclopentyl)methyl rel-sulfamate]
100 | NS(=O)(=O)OC[C@H]1C[C@@H](Nc2ccnc3cc(-c4cc(C(F)(F)F)ccc4F)nn23)[C@H](O)[C@@H]1O (relative stereo) [Compound I-029, (rac)-((1R,2R,3S,4R)-4-((2-(2-Fluoro-5-(trifluoromethyl)phenyl)pyrazolo[1,5-a]pyrimidin-7-yl)amino)-2,3-dihydroxycyclopentyl)methyl rel-sulfamate]
100 | NS(=O)(=O)OC[C@H]1C[C@@H](Nc2ccnc3cc(-c4cccc5cccnc45)nn23)[C@H](O)[C@@H]1O (relative stereo) [Compound I-017, (rac)-((1R,2R,3S,4R)-2,3-Dihydroxy-4-((2-(quinolin-8-yl)pyrazolo[1,5-a]pyrimidin-7-yl)amino)cyclopentyl)methyl rel-sulfamate]
100 | NS(=O)(=O)OC[C@H]1C[C@@H](Nc2ccnc3cc(-c4ccc5ccccc5n4)nn23)[C@H](O)[C@@H]1O (relative stereo) [Compound I-042, (rac)-((1R,2R,3S,4R)-2,3-dihydroxy-4-(2-(quinolin-2-yl)pyrazolo[1,5-a]pyrimidin-7-ylamino)cyclopentyl)methyl rel-sulfamate]
100 | CC(C)(C)c1cccc(-c2cc3nccc(N[C@@H]4C[C@H](COS(N)(=O)=O)[C@@H](O)[C@H]4O)n3n2)c1 (relative stereo) [Compound I-015, (rac)-((1R,2R,3S,4R)-4-((2-(3-(tert-Butyl)phenyl)pyrazolo[1,5-a]pyrimidin-7-yl)amino)-2,3-dihydroxycyclopentyl)methyl rel-sulfamate]
100 | NS(=O)(=O)OC[C@H]1C[C@@H](Nc2ccnc3cc(-c4cccc5cc(C(=O)O)ccc45)nn23)[C@H](O)[C@@H]1O (relative stereo) [Compound I-099, (rac)-rel-5-[7-({(1R,2S,3R,4R)-2,3-dihydroxy-4-[(sulfamoyloxy)methyl]cyclopentyl}amino)pyrazolo[1,5-a]pyrimidin-2-yl]-2-naphthoic acid]
100 | NS(=O)(=O)OC[C@H]1C[C@@H](Nc2ccnc3cc(-c4ccc5cccnc5c4)nn23)[C@H](O)[C@@H]1O (relative stereo) [Compound I-043, (rac)-((1R,2R,3S,4R)-2,3-dihydroxy-4-(2-(quinolin-7-yl)pyrazolo[1,5-a]pyrimidin-7-ylamino)cyclopentyl)methyl rel-sulfamate]
100 | NS(=O)(=O)OC[C@H]1C[C@@H](Nc2ccnc3cc(-c4coc5ccccc45)nn23)[C@H](O)[C@@H]1O (relative stereo) [Compound I-049, (rac)-((1R,2R,3S,4R)-4-(2-(benzofuran-3-yl)pyrazolo[1,5-a]pyrimidin-7-ylamino)-2,3-dihydroxycyclopentyl)methyl rel-sulfamate]
100 | NS(=O)(=O)OC[C@H]1C[C@@H](Nc2ccnc3cc(-c4cncc5ccccc45)nn23)[C@H](O)[C@@H]1O (relative stereo) [Compound I-018, (rac)-((1R,2R,3S,4R)-2,3-dihydroxy-4-(2-(isoquinolin-4-yl)pyrazolo[1,5-a]pyrimidin-7-ylamino)cyclopentyl)methyl rel-sulfamate]
89 | NS(=O)(=O)OC[C@H]1C[C@@H](Nc2ccnc3cc(-c4ccc(C(F)(F)F)s4)nn23)[C@H](O)[C@@H]1O (relative stereo) [Compound I-060, (rac)-((1R,2R,3S,4R)-2,3-Dihydroxy-4-((2-(5-(trifluoromethyl)thiophen-2-yl)pyrazolo[1,5-a]pyrimidin-7-yl)amino)cyclopentyl)methyl rel-sulfamate]
98 | NS(=O)(=O)OC[C@H]1C[C@@H](Nc2ccnc3cc(-c4cc5ccccc5[nH]4)nn23)[C@H](O)[C@@H]1O (relative stereo) [Compound I-024, (rac)-((1R,2R,3S,4R)-4-(2-(1H-indol-2-yl)pyrazolo[1,5-a]pyrimidin-7-ylamino)-2,3-dihydroxycyclopentyl)methyl rel-sulfamate]
100 | NS(=O)(=O)OC[C@H]1C[C@@H](Nc2ccnc3cc(-c4nc(-c5ccccc5)cs4)nn23)[C@H](O)[C@@H]1O (relative stereo) [Compound I-031, (rac)-[(1R,2R,3S,4R)-2,3-dihydroxy-4-{[2-(4-phenyl-1,3-thiazol-2-yl)pyrazolo[1,5-a]pyrimidin-7-yl]amino}cyclopentyl]methyl rel-sulfamate]
100 | NS(=O)(=O)OC[C@H]1C[C@@H](Nc2ccnc3cc(-c4cc(F)c5ccccc5c4)nn23)[C@H](O)[C@@H]1O [Compound I-118, (s.e.)-((1R,2R,3S,4R)-4-(2-(4-fluoronaphthalen-2-yl)pyrazolo[1,5-a]pyrimidin-7-ylamino)-2,3-dihydroxycyclopentyl)methyl sulfamate]
99 | NS(=O)(=O)OC[C@H]1C[C@@H](Nc2ccnc3cc(-c4cc(C(F)(F)F)ccc4Cl)nn23)[C@H](O)[C@@H]1O (relative stereo) [Compound I-030, (rac)-((1R,2R,3S,4R)-4-((2-(2-Chloro-5-(trifluoromethyl)phenyl)pyrazolo[1,5-a]pyrimidin-7-yl)amino)-2,3-dihydroxycyclopentyl)methyl rel-sulfamate]
100 | COc1ccc(OC(F)(F)F)cc1-c1cc2nccc(N[C@@H]3C[C@H](COS(N)(=O)=O)[C@@H](O)[C@H]3O)n2n1 [Compound I-102, (s.e)-[(1R,2R,3S,4R)-2,3-dihydroxy-4-({2-[2-methoxy-5-(trifluoromethoxy)-phenyl]pyrazolo[1,5-a]pyrimidin-7-yl}amino)cyclopentyl]methyl sulfamate]
80 | NS(=O)(=O)OC[C@H]1C[C@@H](Nc2ccnc3cc(-c4ccc(SC(F)(F)F)cc4)nn23)[C@H](O)[C@@H]1O (relative stereo) [Compound I-080, (rac)-((1R,2R,3S,4R)-2,3-dihydroxy-4-(2-(4-(trifluoromethylthio)phenyl)pyrazolo[1,5-a]pyrimidin-7-ylamino)cyclopentyl)methyl rel-sulfamate]
